Measured values reported in US20100062992A1 (SuperGen, Inc., priority 2004, published 2010).
Counter-ions that a name gives are not always drawn.

What was measured:
[1] = 0.05 M phosphate buffer, pH 7.0 and 2.5
[2] = Hygroscopicity, % weight gain in 1 week at 56% and 98% relative humidity; type: physicochemical; settings: one week at 56% / 98% RH

Nc1ncn([C@@H]2O[C@H](CO)C(O)C2O)c(=O)n1 (stereo partly shown) [Compound 19, azacitidine mesylate]
solution stability compared with free base (in words) [1]: slightly less than the free azacitidine base
hygroscopicity compared with free base (in words) [2]: more hydroscopic than free azacitidine
rate of dissolution compared with free base (in words) (1.0 mg in water): less than the free azacitidine base
Dissolution In water (1.0 mg/mL) (time to dissolve, with Sonication): 1 min
